Experimental data reported in patent publication US4782135A (priority 1983, dated 1988).
Where two headings read alike, the source gives them in different places.

Columns and labels:
P388 leukemia = assay: In vivo P388 mouse leukemia test; parameters: species or system mice
From the text: The P388 mouse leukemia test is described in detail in a publication by G. L. Neil, et. al., Cancer Treatment Reports 63, 1971-1978 (1979).
^a Schedule of Injection: daily intraperitoneal injection for 9 days
following tumor implantation.
^b Median survival time of control animals = 10.3 days.
^a Schedule of injection: Intraperitoneal injection on Day 1, 5, and
9, following Tumor inoculation.
^b Median survival time of Control (no drug) animals: 10.2 days.

[1] = test system: herpes simplex virus (HSV) type 2; format: cell-based, herpes simplex virus type 2
equine rhinovirus (ER) = format: cell-based
[2] = test system: L1210 mouse leukemia cells; assay: L1210 tube dilution assay; format: cell-based; settings: for ID50: concentration to inhibit L1210 cell growth by 50 percent; for ID90: concentration to inhibit L1210 cell growth by 90 percent
From the text: The L1210 tube dilution assay is described in detail in a publication by L. H. Li, et al., Cancer Research 39: 4816 (1979).

[3] = for Solubility in organic solvents: methanol, ethanol, isopropanol, dioxane, ethyl acetate, and chloroform
coxsackie (COX) A21 = format: cell-based, coxsackie virus
[4] = test system: herpes simplex virus (HSV) type 1; format: cell-based, herpes simplex virus type 1
[5] = 63 μg/kg/injection, daily i.p. for 9 days
[6] = 63 μg/kg/injection, daily i.p. for 9 days, control 10.3 days
[7] = 125 μg/kg/injection, daily i.p. for 9 days
[8] = 125 μg/kg/injection, daily i.p. for 9 days, control 10.3 days
[9] = 250 μg/kg/injection, daily i.p. for 9 days
[10] = 250 μg/kg/injection, daily i.p. for 9 days, control 10.3 days
[11] = 250 μg/kg/injection, i.p. on Day 1, 5 and 9
[12] = 250 μg/kg/injection, i.p. on Day 1, 5 and 9, control 10.2 days
[13] = 500 μg/kg/injection, daily i.p. for 9 days
[14] = 500 μg/kg/injection, i.p. on Day 1, 5 and 9
[15] = 500 μg/kg/injection, i.p. on Day 1, 5 and 9, control 10.2 days
[16] = 1000 μg/kg/injection, daily i.p. for 9 days
[17] = 1000 μg/kg/injection, i.p. on Day 1, 5 and 9
[18] = 1000 μg/kg/injection, i.p. on Day 1, 5 and 9, control 10.2 days
[19] = 2000 μg/kg/injection, daily i.p. for 9 days
[20] = 2000 μg/kg/injection, i.p. on Day 1, 5 and 9
[21] = 4000 μg/kg/injection, i.p. on Day 1, 5 and 9
[22] = 8000 μg/kg/injection, i.p. on Day 1, 5 and 9
[23] = uninfected ML cells, 50% cell destruction, overnight incubation
[24] = ML cells infected with equine rhinovirus
[25] = ML cells infected with coxsackie A21
[26] = uninfected Vero cells, 50% cell destruction, overnight incubation
[27] = 30 μg/kg/injection, i.p. on Day 1, 5 and 9
[28] = 60 μg/kg/injection, i.p. on Day 1, 5 and 9
[29] = 120 μg/kg/injection, i.p. on Day 1, 5 and 9

didemnin A
T/C (P388 leukemia; [5]): 104%
Weight Change (P388 leukemia; [5]): +0.9 g
Median Survival Time (P388 leukemia; [6]): 10.7 days
T/C (P388 leukemia; [7]): 115%
Weight Change (P388 leukemia; [7]): +1.4 g
Median Survival Time (P388 leukemia; [8]): 11.9 days
T/C (P388 leukemia; [9]): 119%
Weight Change (P388 leukemia; [9]): +1.0 g
Median Survival Time (P388 leukemia; [10]): 12.2 days
T/C (P388 leukemia; [11]): 109%
Weight Change (P388 leukemia; [11]): +1.7 g
Median Survival Time (P388 leukemia; [12]): 11.1 days
T/C (P388 leukemia; [13]): 129%
Weight Change (P388 leukemia; [13]): +0.9 g
Median Survival Time (P388 leukemia; 500 μg/kg/injection, daily i.p. for 9 days, control 10.3 days): 13.2 days
T/C (P388 leukemia; [14]): 118%
Weight Change (P388 leukemia; [14]): +1.6 g
Median Survival Time (P388 leukemia; [15]): 12.1 days
T/C (P388 leukemia; [16]): 158%
Weight Change (P388 leukemia; [16]): +0.3 g
Median Survival Time (P388 leukemia; 1000 μg/kg/injection, daily i.p. for 9 days, control 10.3 days): 16.2 days
T/C (P388 leukemia; [17]): 118%
Weight Change (P388 leukemia; [17]): +1.8 g
Median Survival Time (P388 leukemia; [18]): 12.1 days
T/C (P388 leukemia; [19]): 155%
Weight Change (P388 leukemia; [19]): -0.2 g
Median Survival Time (P388 leukemia; 2000 μg/kg/injection, daily i.p. for 9 days, control 10.3 days): 16.0 days
T/C (P388 leukemia; [20]): 121%
Weight Change (P388 leukemia; [20]): +2.0 g
Median Survival Time (P388 leukemia; 2000 μg/kg/injection, i.p. on Day 1, 5 and 9, control 10.2 days): 12.4 days
T/C (P388 leukemia; [21]): 130%
Weight Change (P388 leukemia; [21]): +1.3 g
Median Survival Time (P388 leukemia; 4000 μg/kg/injection, i.p. on Day 1, 5 and 9, control 10.2 days): 13.3 days
T/C (P388 leukemia; [22]): 140%
Weight Change (P388 leukemia; [22]): +0.8 g
Median Survival Time (P388 leukemia; 8000 μg/kg/injection, i.p. on Day 1, 5 and 9, control 10.2 days): 14.3 days
Activity in vivo against P388 leukemia in mice (P388 leukemia): active
Ratio (cytotoxic concentration ÷ antiviral concentration), HSV-2 virus ([1]; Vero cells): 33
ID50 Antiviral-HSV-2 virus ([1]; Vero cells infected with HSV-2): 1.5 µg/mL
ID50 Toxicity-ML cells (ML cells; [23]): 25 µg/mL
Ratio (cytotoxic concentration ÷ antiviral concentration), ER virus (equine rhinovirus (ER); ML cells): 17
ID50 Antiviral-ER virus (equine rhinovirus (ER); [24]): 1.5 µg/mL
ID50 [2]: 0.019 µg/mL
ID90 [2]: 0.058 µg/mL
Inhibition of growth of L1210 mouse leukemia cells in vitro (words) [2]: inhibit the growth
Solubility in organic solvents [3]: soluble
Solubility in toluene [3]: sparingly soluble
Solubility in water [3]: insoluble
Ratio (cytotoxic concentration ÷ antiviral concentration), cox virus (coxsackie (COX) A21; ML cells): 17
ID50 Antiviral-cox virus (coxsackie (COX) A21; [25]): 1.5 µg/mL
Ratio (cytotoxic concentration ÷ antiviral concentration), HSV-1 virus ([4]; Vero cells): 17
ID50 Antiviral-HSV-1 virus ([4]; Vero cells infected with HSV-1): 3 µg/mL
ID50 Toxicity-Vero cells (Vero cells; [26]): 50 µg/mL

didemnin B
T/C (P388 leukemia; [27]): 125%
Weight Change (P388 leukemia; [27]): +1.6 g
Median Survival Time (P388 leukemia; 30 μg/kg/injection, i.p. on Day 1, 5 and 9, control 10.2 days): 12.8 days
T/C (P388 leukemia; [28]): 140%
Weight Change (P388 leukemia; [28]): +1.2 g
Median Survival Time (P388 leukemia; 60 μg/kg/injection, i.p. on Day 1, 5 and 9, control 10.2 days): 14.3 days
T/C (P388 leukemia; [5]): 143%
Weight Change (P388 leukemia; [5]): +0.1 g
Median Survival Time (P388 leukemia; [6]): 14.8 days
T/C (P388 leukemia; [29]): 147%
Weight Change (P388 leukemia; [29]): +0.2 g
Median Survival Time (P388 leukemia; 120 μg/kg/injection, i.p. on Day 1, 5 and 9, control 10.2 days): 15.0 days
T/C (P388 leukemia; [7]): 136%
Weight Change (P388 leukemia; [7]): -0.6 g
Median Survival Time (P388 leukemia; [8]): 14.0 days
T/C (P388 leukemia; [9]): 138%
Weight Change (P388 leukemia; [9]): -2.2 g
Median Survival Time (P388 leukemia; [10]): 14.2 days
T/C (P388 leukemia; [11]): 157%
Weight Change (P388 leukemia; [11]): -0.5 g
Median Survival Time (P388 leukemia; [12]): 16.0 days
Weight Change (P388 leukemia; [13]): -3.4 g
T/C (P388 leukemia; [14]): 176%
Weight Change (P388 leukemia; [14]): -1.7 g
Median Survival Time (P388 leukemia; [15]): 18.0 days
T/C (P388 leukemia; [17]): 199%
Weight Change (P388 leukemia; [17]): -3.8 g
Median Survival Time (P388 leukemia; [18]): 20.3 days
Activity in vivo against P388 leukemia in mice (P388 leukemia): active
Ratio (cytotoxic concentration ÷ antiviral concentration), HSV-2 virus ([1]; Vero cells): 8
ID50 Antiviral-HSV-2 virus ([1]; Vero cells infected with HSV-2): 1.5 µg/mL
ID50 Toxicity-ML cells (ML cells; [23]): < 1.5 µg/mL
ID50 Antiviral-ER virus (equine rhinovirus (ER); [24]): < 1.5 µg/mL
ID50 [2]: 0.0018 µg/mL
ID90 [2]: 0.0059 µg/mL
Inhibition of growth of L1210 mouse leukemia cells in vitro (words) [2]: inhibit the growth
Inhibition of growth of L1210 mouse leukemia cells in vitro (words) ([2]; listed as didemnin B): inhibit
Solubility in organic solvents [3]: soluble
Solubility in toluene [3]: sparingly soluble
Solubility in water [3]: insoluble
ID50 Antiviral-cox virus (coxsackie (COX) A21; [25]): < 1.5 µg/mL
Ratio (cytotoxic concentration ÷ antiviral concentration), HSV-1 virus ([4]; Vero cells): 8
ID50 Antiviral-HSV-1 virus ([4]; Vero cells infected with HSV-1): 1.5 µg/mL
ID50 Toxicity-Vero cells (Vero cells; [26]): 12 µg/mL

didemnin C
ID50 Antiviral-HSV-2 virus [1]: < 1.5
Ratio (cytotoxic concentration ÷ antiviral concentration), HSV-2 virus [1]: > 33
ID50 Toxicity-ML cells (ML cells): 6
ID50 Antiviral-ER virus (equine rhinovirus (ER)): < 1.5
Ratio (cytotoxic concentration ÷ antiviral concentration), ER virus (equine rhinovirus (ER)): > 4
ID50 Antiviral-cox virus (coxsackie (COX) A21): < 1.5
Ratio (cytotoxic concentration ÷ antiviral concentration), cox virus (coxsackie (COX) A21): > 4
ID50 Antiviral-HSV-1 virus [4]: < 1.5
Ratio (cytotoxic concentration ÷ antiviral concentration), HSV-1 virus [4]: > 33
ID50 Toxicity-Vero cells (Vero cells): 50
